Reference: ChEMBL document CHEMBL1157845, “Structure-activity relationship of new anti-tuberculosis agents derived from oxazoline and oxazole benzyl esters” (Eur J Med Chem, 2010)
pIC50: −log10 of the molar value. ≈ marks a conversion by molar mass, not a printed value. Calls of active or inactive are those of the source. Unless noted, the rule behind the calls is not given here.

Tested on: Mus musculus
Experiment: Toxicity in mouse assessed as behavioral change at 100 mg/kg, po qd for 5 days followed by 2 days rest and 200 mg/kg, po qd for 5 days
Type: organism-based
Settings: in vivo
For `O=C(OCc1ccccc1)c1coc(-c2ccccc2)n1`, the Activity was “Non-toxic”.
In the case of `O=C(OCc1ccccc1)c1coc(-c2ccc(F)c([N+](=O)[O-])c2)n1`, the Activity was “Non-toxic”.
For `O=C(OCc1ccccc1)c1coc(-c2ccccc2Cl)n1`, the Activity was “Non-toxic”.

Tested on: Mycobacterium tuberculosis
Experiment: Antimycobacterial activity against Mycobacterium tuberculosis Erdman infected in BALB/c mouse assessed as reduction of bacterial load at 50 mg/kg, po qd for 5 days per week administered 60 days after infection measured after 85 days post infection
Type: functional, organism-based
Set-up: dose 50 mg/kg
Settings: not given
For `O=C(OCc1ccccc1)c1coc(-c2ccc(F)c([N+](=O)[O-])c2)n1`, the Activity was “inactive”.

Tested on: Mycobacterium avium
Experiment: Antimycobacterial activity against Mycobacterium avium MAC 101
Type: functional, organism-based
Settings: not given
With `O=C(OCc1ccccc1)c1coc(-c2ccccc2)n1` the Activity was “inactive”.
For `O=C(OCc1ccccc1)c1coc(-c2ccc(F)c([N+](=O)[O-])c2)n1`, the Activity was “inactive”.
For `O=C(OCc1ccccc1)c1coc(-c2ccccc2Cl)n1`, the Activity was “inactive”.

Tested on: Bacillus subtilis
Experiment: Antibacterial activity against Bacillus subtilis ATCC 6633
Type: functional, organism-based
Settings: not given
In the case of `O=C(OCc1ccccc1)c1coc(-c2ccccc2)n1`, the Activity was “inactive”.
With `O=C(OCc1ccccc1)c1coc(-c2ccc(F)c([N+](=O)[O-])c2)n1` the Activity was “inactive”.
For `O=C(OCc1ccccc1)c1coc(-c2ccccc2Cl)n1`, the Activity was “inactive”.

Tested on: Micrococcus luteus
Experiment: Antibacterial activity against Micrococcus luteus ATCC 10240
Type: functional, organism-based
Settings: not given
For `O=C(OCc1ccccc1)c1coc(-c2ccccc2)n1`, the Activity was “inactive”.
For `O=C(OCc1ccccc1)c1coc(-c2ccc(F)c([N+](=O)[O-])c2)n1`, the Activity was “inactive”.
In the case of `O=C(OCc1ccccc1)c1coc(-c2ccccc2Cl)n1`, the Activity was “inactive”.

Tested on: Vero
Experiment: Cytotoxicity against african green monkey Vero cells by colorimetric assay
Type: cell-based
Settings: Chlorocebus sabaeus
`O=C(OCc1ccccc1)c1coc(-c2ccccc2)n1` showed a pIC50 of 3.92.
With `O=C(OCc1ccccc1)c1coc(-c2ccc(F)c([N+](=O)[O-])c2)n1` the pIC50 was under 3.89.
Molecule `O=C(OCc1ccccc1)c1coc(-c2ccccc2Cl)n1` has a pIC50 of under 3.89.

Tested on: Escherichia coli
Experiment: Antibacterial activity against Escherichia coli SG 458
Type: functional, organism-based
Settings: not given
With `O=C(OCc1ccccc1)c1coc(-c2ccccc2)n1` the Activity was “inactive”.
With `O=C(OCc1ccccc1)c1coc(-c2ccc(F)c([N+](=O)[O-])c2)n1` the Activity was “inactive”.
For `O=C(OCc1ccccc1)c1coc(-c2ccccc2Cl)n1`, the Activity was “inactive”.

Tested on: Staphylococcus aureus
Experiment: Antibacterial activity against Staphylococcus aureus SG 511
Type: functional, organism-based
Settings: not given
With `O=C(OCc1ccccc1)c1coc(-c2ccccc2)n1` the Activity was “inactive”.
For `O=C(OCc1ccccc1)c1coc(-c2ccc(F)c([N+](=O)[O-])c2)n1`, the Activity was “inactive”.
In the case of `O=C(OCc1ccccc1)c1coc(-c2ccccc2Cl)n1`, the Activity was “inactive”.

Tested on: Mus musculus
Experiment: Toxicity in mouse assessed as change in gross appearance at 100 mg/kg, po qd for 5 days followed by 2 days rest and 200 mg/kg, po qd for 5 days
Type: organism-based
Settings: in vivo
For `O=C(OCc1ccccc1)c1coc(-c2ccccc2)n1`, the Activity was “Non-toxic”.
With `O=C(OCc1ccccc1)c1coc(-c2ccc(F)c([N+](=O)[O-])c2)n1` the Activity was “Non-toxic”.
For `O=C(OCc1ccccc1)c1coc(-c2ccccc2Cl)n1`, the Activity was “Non-toxic”.

Tested on: Mycolicibacterium aurum
Experiment: Antimycobacterial activity against Mycobacterium aurum SB 66
Type: functional, organism-based
Settings: not given
For `O=C(OCc1ccccc1)c1coc(-c2ccccc2)n1`, the Activity was “inactive”.
In the case of `O=C(OCc1ccccc1)c1coc(-c2ccc(F)c([N+](=O)[O-])c2)n1`, the Activity was “inactive”.
For `O=C(OCc1ccccc1)c1coc(-c2ccccc2Cl)n1`, the Activity was “inactive”.

Tested on: Mycobacterium avium
Experiment: Antimycobacterial activity against Mycobacterium avium MAC 108
Type: functional, organism-based
Settings: not given
With `O=C(OCc1ccccc1)c1coc(-c2ccccc2)n1` the Activity was “inactive”.
With `O=C(OCc1ccccc1)c1coc(-c2ccc(F)c([N+](=O)[O-])c2)n1` the Activity was “inactive”.
In the case of `O=C(OCc1ccccc1)c1coc(-c2ccccc2Cl)n1`, the Activity was “inactive”.

Tested on: Mycobacterium tuberculosis
Experiment: Antimycobacterial activity against Mycobacterium tuberculosis H37Rv ATCC 27294 in GAS medium after 1 week by microplate alamar blue assay
Type: functional
Settings: H37Rv ATCC 27294, 168 h
For `O=C(OCc1ccccc1)c1coc(-c2ccccc2)n1`, the MIC was 0.47 µM (≈ 0.131 µg/mL).
`O=C(OCc1ccccc1)c1coc(-c2ccc(F)c([N+](=O)[O-])c2)n1` gave an MIC of 1.1 µM (≈ 0.377 µg/mL).
With `O=C(OCc1ccccc1)c1coc(-c2ccccc2Cl)n1` the MIC was 0.73 µM (≈ 0.229 µg/mL).

Tested on: Mycolicibacterium vaccae
Experiment: Antimycobacterial activity against Mycobacterium vaccae 10670
Type: functional, organism-based
Settings: not given
In the case of `O=C(OCc1ccccc1)c1coc(-c2ccccc2)n1`, the Activity was “inactive”.
With `O=C(OCc1ccccc1)c1coc(-c2ccc(F)c([N+](=O)[O-])c2)n1` the Activity was “inactive”.
For `O=C(OCc1ccccc1)c1coc(-c2ccccc2Cl)n1`, the Activity was “inactive”.

Tested on: Mycobacterium avium
Experiment: Antimycobacterial activity against Mycobacterium avium MAC 100
Type: functional, organism-based
Settings: not given
In the case of `O=C(OCc1ccccc1)c1coc(-c2ccccc2)n1`, the Activity was “inactive”.
For `O=C(OCc1ccccc1)c1coc(-c2ccc(F)c([N+](=O)[O-])c2)n1`, the Activity was “inactive”.
For `O=C(OCc1ccccc1)c1coc(-c2ccccc2Cl)n1`, the Activity was “inactive”.

Tested on: Colletotrichum
Experiment: Antifungal activity against Glomerella
Type: functional, organism-based
Settings: not given
With `O=C(OCc1ccccc1)c1coc(-c2ccccc2)n1` the Activity was “inactive”.
For `O=C(OCc1ccccc1)c1coc(-c2ccc(F)c([N+](=O)[O-])c2)n1`, the Activity was “inactive”.
With `O=C(OCc1ccccc1)c1coc(-c2ccccc2Cl)n1` the Activity was “inactive”.

Tested on: Mycolicibacterium aurum
Experiment: Antimycobacterial activity against Mycobacterium aurum DSM 43536
Type: functional, organism-based
Settings: not given
For `O=C(OCc1ccccc1)c1coc(-c2ccccc2)n1`, the Activity was “inactive”.
In the case of `O=C(OCc1ccccc1)c1coc(-c2ccc(F)c([N+](=O)[O-])c2)n1`, the Activity was “inactive”.
With `O=C(OCc1ccccc1)c1coc(-c2ccccc2Cl)n1` the Activity was “inactive”.

Tested on: Mus musculus
Experiment: Toxicity in mouse assessed as change in body weight at 100 mg/kg, po qd for 5 days followed by 2 days rest and 200 mg/kg, po qd for 5 days
Type: organism-based
Settings: in vivo
In the case of `O=C(OCc1ccccc1)c1coc(-c2ccccc2)n1`, the Activity was “Non-toxic”.
Molecule `O=C(OCc1ccccc1)c1coc(-c2ccc(F)c([N+](=O)[O-])c2)n1` has an Activity of 12%.
With `O=C(OCc1ccccc1)c1coc(-c2ccccc2Cl)n1` the Activity was “Non-toxic”.

Tested on: Mycobacterium tuberculosis
Experiment: Antimycobacterial activity against Mycobacterium tuberculosis H37Rv ATCC 27294 incubated 10 days under anaerobic condition measured after 24 hrs recovery in air by luciferase based low oxygen recovery assay
Type: functional
Settings: not given
With `O=C(OCc1ccccc1)c1coc(-c2ccccc2)n1` the MIC was 3.8 µM (≈ 1.06 µg/mL).
In the case of `O=C(OCc1ccccc1)c1coc(-c2ccc(F)c([N+](=O)[O-])c2)n1`, the MIC was 31.9 µM (≈ 10.9 µg/mL).
Work on `O=C(OCc1ccccc1)c1coc(-c2ccccc2Cl)n1` yielded an MIC of 11.4 µM (≈ 3.58 µg/mL).

Tested on: Mycolicibacterium fortuitum
Experiment: Antimycobacterial activity against Mycobacterium fortuitum B by agar diffusion assay
Type: functional, organism-based
Settings: not given
In the case of `O=C(OCc1ccccc1)c1coc(-c2ccccc2)n1`, the Activity was “Active”.
With `O=C(OCc1ccccc1)c1coc(-c2ccc(F)c([N+](=O)[O-])c2)n1` the Activity was “Active”.
In the case of `O=C(OCc1ccccc1)c1coc(-c2ccccc2Cl)n1`, the Activity was “Active”.

Tested on: Sporobolomyces salmonicolor
Experiment: Antimicrobial activity against Sporobolomyces salmonicolor SBUG 549
Type: functional, organism-based
Settings: not given
With `O=C(OCc1ccccc1)c1coc(-c2ccccc2)n1` the Activity was “inactive”.
With `O=C(OCc1ccccc1)c1coc(-c2ccc(F)c([N+](=O)[O-])c2)n1` the Activity was “inactive”.
In the case of `O=C(OCc1ccccc1)c1coc(-c2ccccc2Cl)n1`, the Activity was “inactive”.

Tested on: Mycolicibacterium vaccae
Experiment: Antimycobacterial activity against Mycobacterium vaccae 10670 by agar diffusion assay
Type: functional, organism-based
Settings: not given
For `O=C(OCc1ccccc1)c1coc(-c2ccccc2)n1`, the Activity was “Active”.
In the case of `O=C(OCc1ccccc1)c1coc(-c2ccc(F)c([N+](=O)[O-])c2)n1`, the Activity was “Active”.
With `O=C(OCc1ccccc1)c1coc(-c2ccccc2Cl)n1` the Activity was “Active”.

Tested on: Candida albicans
Experiment: Antifungal activity against Candida albicans
Type: functional, organism-based
Settings: not given
In the case of `O=C(OCc1ccccc1)c1coc(-c2ccccc2)n1`, the Activity was “inactive”.
With `O=C(OCc1ccccc1)c1coc(-c2ccc(F)c([N+](=O)[O-])c2)n1` the Activity was “inactive”.
In the case of `O=C(OCc1ccccc1)c1coc(-c2ccccc2Cl)n1`, the Activity was “inactive”.

Tested on: Mycolicibacterium fortuitum
Experiment: Antimycobacterial activity against Mycobacterium fortuitum B
Type: functional, organism-based
Settings: not given
For `O=C(OCc1ccccc1)c1coc(-c2ccccc2)n1`, the Activity was “inactive”.
With `O=C(OCc1ccccc1)c1coc(-c2ccc(F)c([N+](=O)[O-])c2)n1` the Activity was “inactive”.
With `O=C(OCc1ccccc1)c1coc(-c2ccccc2Cl)n1` the Activity was “inactive”.

Tested on: Mycolicibacterium smegmatis
Experiment: Antimycobacterial activity against Mycobacterium smegmatis SG 987
Type: functional, organism-based
Settings: not given
With `O=C(OCc1ccccc1)c1coc(-c2ccccc2)n1` the Activity was “inactive”.
In the case of `O=C(OCc1ccccc1)c1coc(-c2ccc(F)c([N+](=O)[O-])c2)n1`, the Activity was “inactive”.
With `O=C(OCc1ccccc1)c1coc(-c2ccccc2Cl)n1` the Activity was “inactive”.

Tested on: not listed separately
Experiment: Chemical stability in simulated gastric fluid assessed as compound remaining after 2 hrs by HPLC analysis
Type: physicochemical
Settings: simulated gi fluid
`O=C(OCc1ccccc1)c1coc(-c2ccccc2)n1` gave a Stability of 0.5%.
With `O=C(OCc1ccccc1)c1coc(-c2ccc(F)c([N+](=O)[O-])c2)n1` the Stability was 2.1%.
Molecule `O=C(OCc1ccccc1)c1coc(-c2ccccc2Cl)n1` has a Stability of 4.2%.

Tested on: Mycobacterium tuberculosis
Experiment: Antimycobacterial activity against Mycobacterium tuberculosis Erdman infected in BALB/c mouse assessed as reduction of bacterial load at 200 mg/kg, po qd for 5 days per week administered 60 days after infection measured after 85 days post infection
Type: functional, organism-based
Set-up: dose 200 mg/kg
Settings: not given
With `O=C(OCc1ccccc1)c1coc(-c2ccccc2)n1` the Activity was “inactive”.
For `O=C(OCc1ccccc1)c1coc(-c2ccc(F)c([N+](=O)[O-])c2)n1`, the Activity was “inactive”.
In the case of `O=C(OCc1ccccc1)c1coc(-c2ccccc2Cl)n1`, the Activity was “inactive”.

Tested on: Proteus vulgaris
Experiment: Antibacterial activity against Proteus vulgaris OX 19
Type: functional, organism-based
Settings: not given
With `O=C(OCc1ccccc1)c1coc(-c2ccccc2)n1` the Activity was “inactive”.
With `O=C(OCc1ccccc1)c1coc(-c2ccc(F)c([N+](=O)[O-])c2)n1` the Activity was “inactive”.
With `O=C(OCc1ccccc1)c1coc(-c2ccccc2Cl)n1` the Activity was “inactive”.

Tested on: Mycobacterium avium
Experiment: Antimycobacterial activity against Mycobacterium avium MAC 109
Type: functional, organism-based
Settings: not given
In the case of `O=C(OCc1ccccc1)c1coc(-c2ccccc2)n1`, the Activity was “inactive”.
With `O=C(OCc1ccccc1)c1coc(-c2ccc(F)c([N+](=O)[O-])c2)n1` the Activity was “inactive”.
For `O=C(OCc1ccccc1)c1coc(-c2ccccc2Cl)n1`, the Activity was “inactive”.

Tested on: Mycobacterium avium
Experiment: Antimycobacterial activity against Mycobacterium avium MAC 116
Type: functional, organism-based
Settings: not given
For `O=C(OCc1ccccc1)c1coc(-c2ccccc2)n1`, the Activity was “inactive”.
With `O=C(OCc1ccccc1)c1coc(-c2ccc(F)c([N+](=O)[O-])c2)n1` the Activity was “inactive”.
With `O=C(OCc1ccccc1)c1coc(-c2ccccc2Cl)n1` the Activity was “inactive”.

Tested on: Mycobacterium tuberculosis
Experiment: Antimycobacterial activity against Mycobacterium tuberculosis H37Rv ATCC 27294 in GAST medium after 1 week by microplate alamar blue assay
Type: functional
Settings: H37Rv ATCC 27294, 168 h
Molecule `O=C(OCc1ccccc1)c1coc(-c2ccccc2)n1` has an MIC of 0.49 µM (≈ 0.137 µg/mL).
Work on `O=C(OCc1ccccc1)c1coc(-c2ccc(F)c([N+](=O)[O-])c2)n1` yielded an MIC of 0.48 µM (≈ 0.164 µg/mL).
With `O=C(OCc1ccccc1)c1coc(-c2ccccc2Cl)n1` the MIC was 1.69 µM (≈ 0.53 µg/mL).

Tested on: Liver microsomes
Experiment: Metabolic stability in Sprague-Dawley rat microsomes assessed as compound remaining after 15 mins by HPLC analysis
Type: ADME, Microsome
Settings: 0.25 h
Work on `O=C(OCc1ccccc1)c1coc(-c2ccccc2)n1` yielded a Stability of 15%.
For `O=C(OCc1ccccc1)c1coc(-c2ccc(F)c([N+](=O)[O-])c2)n1`, the Stability was 8.1%.
`O=C(OCc1ccccc1)c1coc(-c2ccccc2Cl)n1` showed a Stability of 8.8%.
